Source: ChEMBL document CHEMBL5385846, “Discovery and development of palmatine analogues as anti-NASH agents by activating farnesoid X receptor (FXR)” (Eur J Med Chem, 2023)
Active and inactive are the calls of the source.

What was measured:
[1] = Half life in human liver microsomes at 1 micromol/L measured upto 60 mins in presence of NADPH by LC-MS/MS analysis; assay type: ADME, Microsome; settings: dose 1 µmol/L
Mus musculus [2] = assay: Anti-inflammatory activity in CDAHFD induced C57BL/6N mouse liver injury model assessed as downregulation of IL-1beta protein expression in liver at 200 mg/kg,po qd administration for 4 weeks by Western blotting analysis; assay type: functional, organism-based
Mus musculus [3] = assay: Anti-inflammatory activity in CDAHFD induced C57BL/6N mouse liver injury model assessed as downregulation of TNF-alpha mRNA expression in liver at 200 mg/kg,po qd administration for 4 weeks by qRT-PCR analysis; assay type: functional, organism-based
Mus musculus [4] = assay: Anti-inflammatory activity in CDAHFD induced C57BL/6N mouse liver injury model assessed as downregulation of IL-6 mRNA expression in liver at 200 mg/kg,po qd administration for 4 weeks by qRT-PCR analysis; assay type: functional, organism-based
Mus musculus [5] = assay: Anti-inflammatory activity in CDAHFD induced C57BL/6N mouse liver injury model assessed as downregulation of IL-1beta mRNA expression in liver at 200 mg/kg,po qd administration for 4 weeks by qRT-PCR analysis; assay type: functional, organism-based
Mus musculus [6] = assay: Antifibrotic activity in CDAHFD induced non-alcoholic steatohepatitis C57BL/6N mouse model assessed as downregulation of TIMP1 protein expression at 200 mg/kg,po qd administration for 4 weeks by Western blotting analysis; assay type: functional, organism-based
Mus musculus [7] = assay: Antifibrotic activity in CDAHFD induced non-alcoholic steatohepatitis C57BL/6N mouse model assessed as downregulation of TGF-beta1 protein expression at 200 mg/kg,po qd administration for 4 weeks by Western blotting analysis; assay type: functional, organism-based
Mus musculus [8] = assay: Antifibrotic activity in CDAHFD induced non-alcoholic steatohepatitis C57BL/6N mouse model assessed as downregulation of TIMP1 mRNA expression at 200 mg/kg,po qd administration for 4 weeks by qRT-PCR analysis; assay type: functional, organism-based
Mus musculus [9] = assay: Antifibrotic activity in CDAHFD induced non-alcoholic steatohepatitis C57BL/6N mouse model assessed as decrease in collagen area at 200 mg/kg,po qd administration for 4 weeks by Masson's trichrome staining based analysis; assay type: functional, organism-based
Mus musculus [10] = assay: Hepatoprotective activity in CDAHFD induced C57BL/6N mouse liver injury model assessed as increase in glutathione peroxidase level at 200 mg/kg,po qd administration for 4 weeks; assay type: functional, organism-based
Mus musculus [11] = assay: Hepatoprotective activity in CDAHFD induced C57BL/6N mouse liver injury model assessed as inhibition of lipid peroxidation at 200 mg/kg,po qd administration for 4 weeks; assay type: functional, organism-based
Mus musculus [12] = assay: Hepatoprotective activity in CDAHFD induced C57BL/6N mouse liver injury model assessed as reduction in free cholesterol level at 200 mg/kg,po qd administration for 4 weeks; assay type: functional, organism-based
Mus musculus [13] = assay: Hepatoprotective activity in CDAHFD induced C57BL/6N mouse liver injury model assessed as reduction in hepatic steatosis at 200 mg/kg,po qd administration for 4 weeks by hematoxylin and eosin staining based assay; assay type: functional, organism-based
Mus musculus [14] = assay: Hepatoprotective activity in CDAHFD induced C57BL/6N mouse liver injury model assessed as increase in glucose level at 200 mg/kg,po qd administration for 4 weeks; assay type: functional, organism-based
Mus musculus [15] = assay: Hepatoprotective activity in CDAHFD induced C57BL/6N mouse liver injury model assessed as increase in HDL level at 200 mg/kg,po qd administration for 4 weeks; assay type: functional, organism-based
Mus musculus [16] = assay: Hepatoprotective activity in CDAHFD induced C57BL/6N mouse liver injury model assessed as decrease in total bilirubin level at 200 mg/kg,po qd administration for 4 weeks; assay type: functional, organism-based
Mus musculus [17] = assay: Hepatoprotective activity in CDAHFD induced C57BL/6N mouse liver injury model assessed as decrease in LDL level at 200 mg/kg,po qd administration for 4 weeks; assay type: functional, organism-based
[18] = Acute toxicity in Kunming mouse assessed as effect on ALT level at 250 to 1000 mg/kg,po administration; assay type: organism-based; settings: in vivo, dose 250-1000 mg/kg
LX-2 [19] = assay: Antifibrotic activity in TGF-beta1 induced human LX2 cells assessed as downregulation of TIMP1 mRNA expression incubated for 24 hrs by qRT-PCR analysis; assay type: functional, cell-based
LX-2 [20] = assay: Antifibrotic activity in TGF-beta1 induced human LX2 cells assessed as downregulation of alpha-SMA mRNA expression incubated for 24 hrs by qRT-PCR analysis; assay type: functional, cell-based
LX-2 [21] = assay: Antifibrotic activity in TGF-beta1 induced human LX2 cells assessed as downregulation of COL1A1 mRNA expression incubated for 24 hrs by qRT-PCR analysis; assay type: functional, cell-based
LX-2 [22] = assay: Antifibrotic activity in TGF-beta1 induced human LX2 cells assessed as downregulation of TGF-beta1 protein expression incubated for 24 hrs by western blotting analysis; assay type: functional, cell-based
LX-2 [23] = assay: Antifibrotic activity in TGF-beta1 induced human LX2 cells assessed as downregulation of COL1A1 protein expression incubated for 24 hrs by western blotting analysis; assay type: functional, cell-based
[24] = Metabolic stability in CD-1 mouse liver microsomes assessed as compound remaining at 1 micromol/L measured upto 60 mins in presence of NADPH by LC-MS/MS analysis; assay type: ADME, Microsome; settings: 1 h, 1 µM, dose 1 µmol/L
[25] = Metabolic stability in Sprague-Dawley rat liver microsomes assessed as compound remaining at 1 micromol/L measured upto 60 mins in presence of NADPH by LC-MS/MS analysis; assay type: ADME, Microsome; settings: dose 1 µmol/L, read-out: Stability
[26] = Metabolic stability in Sprague-Dawley rat liver microsomes assessed as intrinsic clearance at 1 micromol/L measured upto 60 mins in presence of NADPH by LC-MS/MS analysis; assay type: ADME, Microsome; settings: 1 h, 1 µM, dose 1 µmol/L
[27] = Metabolic stability in human liver microsomes assessed as microsomal intrinsic clearance at 1 micromol/L measured upto 60 mins in presence of NADPH by LC-MS/MS analysis; assay type: ADME, Microsome; settings: dose 1 µmol/L, read-out: CLH
[28] = Half life in Sprague-Dawley rat liver microsomes at 1 micromol/L measured upto 60 mins in presence of NADPH by LC-MS/MS analysis; assay type: ADME, Microsome; settings: dose 1 µmol/L
LX-2 [29] = assay: Antifibrotic activity in TGF-beta1 induced human LX2 cells assessed as downregulation of TIMP1 protein expression incubated for 24 hrs by western blotting analysis; assay type: functional, cell-based
THP-1 [30] = assay: Anti-inflammatory activity in PMA differentiated human THP-1 cells assessed as downregulation of caspase-1 protein expression at 5 micromol/L incubated for 4 hrs followed by LPS and Nigericin addition for 3.5 hrs by Western blotting analysis; assay type: functional, cell-based; settings: dose 5.0 µmol/L, time 7.5 hrs
THP-1 [31] = assay: Anti-inflammatory activity in PMA differentiated human THP-1 cells assessed as downregulation of caspase-1 protein expression at 10 micromol/L incubated for 4 hrs followed by LPS and Nigericin addition for 3.5 hrs by Western blotting analysis; assay type: functional, cell-based; settings: dose 10.0 µmol/L, time 7.5 hrs
Rattus norvegicus = assay: Antifibrotic activity in bile duct ligation induced Sprague-Dawley rat liver fibrosis model assessed as downregulation of TIMP1 mRNA expression at 200 mg/kg,po qd administration for 14 days by qRT-PCR analysis; assay type: functional, organism-based; settings: time 14.0 day

COc1cc2c(cc1OC)-c1cc3ccc(OC)c(OCc4cccc(C)c4)c3c[n+]1CC2.[Br-]
active: Activity (Mus musculus [2]) | Activity (Mus musculus [3]) | Activity (Mus musculus [4]) | Activity (Mus musculus [5]) | Activity (Mus musculus [6]) | Activity (Mus musculus [7]) | Activity (Mus musculus [8]) | Activity (Mus musculus [9]) | Activity (Mus musculus [10]) | Activity (Mus musculus [11]) | Activity (Mus musculus [12]) | Activity (Mus musculus [13]) | Activity (Mus musculus [14]) | Activity (Mus musculus [15]) | Activity (Mus musculus [16]) | Activity (Mus musculus [17]) | Activity (LX-2 [19]) Dose-Dependent Effect | Activity (LX-2 [20]) Dose-Dependent Effect | Activity (LX-2 [21]) Dose-Dependent Effect | Activity (LX-2 [22]) Dose-Dependent Effect | Activity (LX-2 [23]) Dose-Dependent Effect | Activity (LX-2 [29]) Dose-Dependent Effect | Activity (THP-1 [30]) | Activity (THP-1 [31]) | Activity (Rattus norvegicus)
Non-Toxic: Activity [18]
26 µL/min/mg: microsomal CLint at 1 µM [27]
39%: Stability [24]
338 mL/min/kg: CLint,scaled [26]
53.3 min: half-life at 1 µM [1]
7.4 min: half-life at 1 µM [28]
0.4%: remaining at 1 h, 1 µM [25]
